From patent publication US8404859B2, “Thiazole and thiophene compounds” (Hoffmann-La Roche Inc., priority 2011, dated 2013) come the findings set out here.

Test [1] addresses sLFA-1/ICAM-1 (Homo sapiens, UniProt P05107+P20701, DEL701-769). In words: sLFA-1/ICAM-1 ELISA. Particulars: sLFA-1 coated plates, 5dICAM-Fc binding, read-out: LFA/ICAM (IC50). As for the experimental part:
(§1) sLFA-1/ICAM-1 ELISA and Mac-1/ICAM-1 ELISA
(§2) Plates were coated with either 50 μl/well of 2.0 ug/ml solution of sLFA-1 or Mac-1 receptor in divalent cation buffer (1 mM MnCI2, 0.14M NaCl, 20 mM HEPES pH 7.2) at 4° C. overnight. Two hundred fifty μl of blocking buffer (1% BSA in divalent cation buffer) was added to each well 1 hour at 37° C. Plates were washed 3 times with wash buffer (TBS/0.05% Tween-20/1 mM MnCl2). The compound to be tested was solubilized in DMSO. A series of 1:3 dilutions were performed to achieve a concentration range of 0.45 nM-3 uM. Fifty μl of binding buffer (0.5% BSA in divalent cation buffer)/1% DMSO and 50 μl of the solutions to be tested were added to the appropriate wells and incubated for 1 hour. Fifty μl of 5dICAM-Fc (27 ng/ml) was added to the appropriate wells and 50 μl binding buffer was added to non-specific binding wells and incubated for 2 hours and washed. One hundred μl of 1:4000 HRP-goat anti-huIgG was added to each well and incubated for 1 hour and washed. One hundred μl of 1:1 TMB solution was added to each well and developed for 20 min at room temperature. Color development was stopped by adding 100 μl H3PO4 to each well. Absorbance was measured at 450 nm.

In test [2] the target is Mac-1/ICAM-1 (Homo sapiens, UniProt P05107+P11215). The test is described as follows: Mac-1/ICAM-1 ELISA. Particulars: Mac-1 receptor coated plates, 5dICAM-Fc binding. As for the experimental part: as §1, §2
(In an ELISA, binding on a coated surface is turned into a signal by an enzyme label.)

Sequence of Mac-1/ICAM-1 (P05107 23-769, other chains not shown): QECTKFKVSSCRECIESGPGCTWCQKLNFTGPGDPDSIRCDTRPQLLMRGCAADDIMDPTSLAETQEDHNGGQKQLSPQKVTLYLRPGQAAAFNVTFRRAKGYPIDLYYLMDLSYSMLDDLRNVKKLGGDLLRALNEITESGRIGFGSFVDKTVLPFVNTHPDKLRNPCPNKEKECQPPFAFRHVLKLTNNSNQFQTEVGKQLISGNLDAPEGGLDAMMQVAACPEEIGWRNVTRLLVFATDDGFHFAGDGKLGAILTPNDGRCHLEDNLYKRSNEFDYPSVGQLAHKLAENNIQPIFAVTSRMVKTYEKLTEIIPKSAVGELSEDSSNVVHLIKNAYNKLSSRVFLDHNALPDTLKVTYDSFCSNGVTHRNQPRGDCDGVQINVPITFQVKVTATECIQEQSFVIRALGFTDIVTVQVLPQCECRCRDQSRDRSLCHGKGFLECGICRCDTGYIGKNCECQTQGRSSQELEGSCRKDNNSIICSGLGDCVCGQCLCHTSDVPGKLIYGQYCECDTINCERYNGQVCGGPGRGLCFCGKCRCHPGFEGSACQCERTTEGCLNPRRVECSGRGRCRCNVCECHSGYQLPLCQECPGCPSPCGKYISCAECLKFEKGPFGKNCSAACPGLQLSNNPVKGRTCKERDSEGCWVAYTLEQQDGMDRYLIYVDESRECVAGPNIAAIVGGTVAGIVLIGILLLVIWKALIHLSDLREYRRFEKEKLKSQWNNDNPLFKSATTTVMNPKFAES
Sequence of sLFA-1/ICAM-1 (P20701 26-1090 limits assumed, stated change not applied): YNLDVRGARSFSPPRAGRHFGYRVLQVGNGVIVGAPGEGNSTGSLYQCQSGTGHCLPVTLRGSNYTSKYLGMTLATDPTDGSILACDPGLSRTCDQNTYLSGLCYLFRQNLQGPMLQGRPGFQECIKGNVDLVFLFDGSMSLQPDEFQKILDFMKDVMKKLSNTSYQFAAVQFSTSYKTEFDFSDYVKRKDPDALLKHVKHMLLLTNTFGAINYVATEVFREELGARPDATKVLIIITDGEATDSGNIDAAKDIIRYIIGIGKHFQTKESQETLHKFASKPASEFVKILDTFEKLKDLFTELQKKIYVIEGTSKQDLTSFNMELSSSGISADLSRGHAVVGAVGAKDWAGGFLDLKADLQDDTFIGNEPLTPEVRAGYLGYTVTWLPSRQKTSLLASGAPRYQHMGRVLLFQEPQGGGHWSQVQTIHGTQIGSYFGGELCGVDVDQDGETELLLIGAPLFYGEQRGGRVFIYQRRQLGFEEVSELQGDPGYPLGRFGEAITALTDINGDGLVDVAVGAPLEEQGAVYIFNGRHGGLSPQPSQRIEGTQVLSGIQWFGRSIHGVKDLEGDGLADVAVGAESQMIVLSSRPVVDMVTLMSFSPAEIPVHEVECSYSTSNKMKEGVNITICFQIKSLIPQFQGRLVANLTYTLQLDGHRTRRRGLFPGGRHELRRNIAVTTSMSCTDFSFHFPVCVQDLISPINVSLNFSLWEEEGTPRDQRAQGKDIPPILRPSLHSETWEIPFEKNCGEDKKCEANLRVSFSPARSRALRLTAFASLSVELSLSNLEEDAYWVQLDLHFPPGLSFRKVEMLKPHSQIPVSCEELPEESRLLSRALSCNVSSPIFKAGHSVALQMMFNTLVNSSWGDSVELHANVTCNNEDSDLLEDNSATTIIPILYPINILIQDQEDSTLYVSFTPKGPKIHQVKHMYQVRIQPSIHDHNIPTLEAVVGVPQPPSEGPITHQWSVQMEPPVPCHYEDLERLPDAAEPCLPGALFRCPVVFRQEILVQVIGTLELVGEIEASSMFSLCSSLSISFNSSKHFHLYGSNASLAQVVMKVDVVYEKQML
Sequence of sLFA-1/ICAM-1 (P05107 23-700 limits assumed, stated change not applied): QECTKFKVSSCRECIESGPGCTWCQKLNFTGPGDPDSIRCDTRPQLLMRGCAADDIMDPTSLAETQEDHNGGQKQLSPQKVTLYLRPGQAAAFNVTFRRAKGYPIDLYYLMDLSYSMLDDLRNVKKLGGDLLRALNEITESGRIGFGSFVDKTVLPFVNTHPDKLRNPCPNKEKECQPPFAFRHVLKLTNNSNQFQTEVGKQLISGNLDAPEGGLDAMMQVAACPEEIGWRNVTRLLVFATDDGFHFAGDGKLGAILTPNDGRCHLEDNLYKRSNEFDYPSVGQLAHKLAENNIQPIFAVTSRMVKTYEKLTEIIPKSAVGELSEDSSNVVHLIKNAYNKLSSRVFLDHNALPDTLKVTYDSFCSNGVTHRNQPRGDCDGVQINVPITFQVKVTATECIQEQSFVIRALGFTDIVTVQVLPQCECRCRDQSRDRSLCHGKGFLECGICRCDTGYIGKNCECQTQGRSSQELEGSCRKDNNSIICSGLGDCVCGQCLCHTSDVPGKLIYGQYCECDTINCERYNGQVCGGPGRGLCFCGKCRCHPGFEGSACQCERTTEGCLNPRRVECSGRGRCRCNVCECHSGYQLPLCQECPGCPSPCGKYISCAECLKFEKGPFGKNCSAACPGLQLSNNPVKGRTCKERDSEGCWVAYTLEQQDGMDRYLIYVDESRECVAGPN

With `COc1cc(C(=O)NC[C@H](NC(=O)c2sc(C(=O)NCc3cccc(O)c3)cc2C)C(=O)O)nc(OC)n1` [Example 43, (S)-3-[(2,6-dimethoxy-pyrimidine-4-carbonyl)-amino]-2-{[5-(3-hydroxy-benzylcarbamoyl)-3-methyl-thiophene-2-carbonyl]-amino}-propionic acid], the IC50 in test [1] was above 3 µM.

For the compound `Cc1cc(C(=O)NCc2cccc(O)c2)sc1C(=O)N[C@@H](CNC(=O)c1cccc2[nH]ncc12)C(=O)O` [Example 44, (S)-2-{[5-(3-hydroxy-benzylcarbamoyl)-3-methyl-thiophene-2-carbonyl]-amino}-3-[(1H-indazole-4-carbonyl)-amino]-propionic acid], the IC50 in test [1] is 0.017 µM.

As for `O=C(Cc1cccc(O)c1)Nc1ncc(C(=O)N[C@@H](CNC(=O)c2cccs2)C(=O)O)s1` [Example 3, (S)-2-({2-[2-(3-Hydroxy-phenyl)-acetylamino]-thiazole-5-carbonyl}-amino)-3-[(thiophene-2-carbonyl)-amino]-propionic acid], the IC50 in test [1] was 0.085 µM; in test [2], above 3 µM.

For `O=C(NC[C@H](NC(=O)c1sc(C(=O)NCc2cccc(O)c2)cc1Br)C(=O)O)c1cccs1` [Example 63, (S)-2-{[3-Bromo-5-(3-hydroxy-benzylcarbamoyl)-thiophene-2-carbonyl]-amino}-3-[(thiophene-2-carbonyl)-amino]-propionic acid], the IC50 came to 0.007 µM in test [1] and 0.025 µM in test [2].

For `O=C(Cc1cccc(O)c1)Nc1nc(Cl)c(C(=O)N[C@@H](CNC(=O)c2cccs2)C(=O)O)s1` [Example 8, (S)-2-({4-Chloro-2-[2-(3-hydroxy-phenyl)-acetylamino]-thiazole-5-carbonyl}-amino)-3-[(thiophene-2-carbonyl)-amino]-propionic acid], the IC50 in test [1] came out at 0.007 µM; in test [2], 0.032 µM.

For the compound `Cc1nc(NC(=O)Cc2cccc(O)c2)sc1C(=O)N[C@@H](CNC(=O)c1cc(O)cc(O)c1)C(=O)O` [Example 6, (S)-3-(3,5-Dihydroxy-benzoylamino)-2-({2-[2-(3-hydroxy-phenyl)-acetylamino]-4-methyl-thiazole-5-carbonyl}-amino)-propionic acid], the IC50 in test [1] turned out to be 0.003 µM.

Regarding `CC(C)c1cc(C(=O)NCc2cccc(O)c2)sc1C(=O)N[C@@H](CNC(=O)c1cccs1)C(=O)O` [Example 59, (S)-2-{[5-(3-Hydroxy-benzylcarbamoyl)-3-isopropyl-thiophene-2-carbonyl]-amino}-3-[(thiophene-2-carbonyl)-amino]-propionic acid], the IC50 in test [1] worked out at 0.029 µM; in test [2] it was 0.046 µM.

In the case of `Cc1nc(NC(=O)Cc2cccc3[nH]ncc23)sc1C(=O)N[C@@H](CNC(=O)c1cccs1)C(=O)O` [Example 14, (S)-2-{[2-(2-1H-Indazol-4-yl-acetylamino)-4-methyl-thiazole-5-carbonyl]-amino}-3-[(thiophene-2-carbonyl)-amino]-propionic acid], the IC50 came out at 0.008 µM in test [1] and 0.089 µM in test [2].

For the compound `Cc1nc(NC(=O)Cc2cccc(O)c2)sc1C(=O)N[C@@H](CNC(=O)c1cccc(O)c1)C(=O)O` [Example 5, (S)-3-(3-Hydroxy-benzoylamino)-2-({2-[2-(3-hydroxy-phenyl)-acetylamino]-4-methyl-thiazole-5-carbonyl}-amino)-propionic acid], the IC50 stood at 0.002 µM in test [1] and 0.3 µM in test [2].

Take `Cc1cc(C(=O)NCc2cccc(O)c2)sc1C(=O)N[C@@H](CNC(=O)c1cnccn1)C(=O)O` [Example 41]: the IC50 in test [1] was 0.021 µM; in test [2] it was above 3 µM.

As for `CCc1cc(C(=O)NCc2cccc3[nH]ncc23)sc1C(=O)N[C@@H](CNC(=O)c1cccs1)C(=O)O` [Example 62, (S)-2-({3-Ethyl-5-[(1H-indazol-4-ylmethyl)-carbamoyl]-thiophene-2-carbonyl}-amino)-3-[(thiophene-2-carbonyl)-amino]-propionic acid], the IC50 came out at 0.021 µM in test [1] and 0.025 µM in test [2].

With `Cc1cc(C(=O)NCc2cccc(O)c2)sc1C(=O)N[C@@H](CNC(=O)c1cc(=O)[nH]c(=O)[nH]1)C(=O)O` [Example 39], the IC50 in test [1] is 0.055 µM; in test [2] it was above 3 µM.

On to `O=C(NC[C@H](NC(=O)c1sc(C(=O)NCc2cccc(O)c2)cc1Cl)C(=O)O)c1cccs1` [Example 54, (S)-2-{[3-Chloro-5-(3-hydroxy-benzylcarbamoyl)-thiophene-2-carbonyl]-amino}-3-[(thiophene-2-carbonyl)-amino]-propionic acid], for which the IC50 in test [1] worked out at 0.007 µM; in test [2] it was 0.062 µM.

For the compound `CC(C)(C)c1cc(C(=O)NCc2cccc(O)c2)sc1C(=O)N[C@@H](CNC(=O)c1cccs1)C(=O)O` [Example 33], the values for the IC50 in test [1] and in test [2] were 0.149 µM and 0.3 µM, respectively.

Turning to `Cc1nc(NC(=O)CCc2cccc(O)c2)sc1C(=O)N[C@@H](CNC(=O)c1cccs1)C(=O)O` [Example 11, (S)-2-([2-[3-(3-Hydroxy-phenyl)-propionylamino]-4-methyl-thiazole-5-carbonyl]-amino)-3-[(thiophene-2-carbonyl)-amino]-propionic acid], the IC50 in test [1] is 0.09 µM.

Consider `N#Cc1cc(C(=O)NCc2cccc3[nH]ncc23)sc1C(=O)N[C@@H](CNC(=O)c1cc(O)cc(O)c1)C(=O)O` [Example 66, (S)-2-({3-Cyano-5-[(1H-indazol-4-ylmethyl)-carbamoyl]-thiophene-2-carbonyl}-amino)-3-(3,5-dihydroxy-benzoylamino)-propionic acid], for which the IC50 in test [1] was determined as 0.041 µM.

Regarding `Cc1cc(C(=O)NC(C)c2cccc(O)c2)sc1C(=O)N[C@@H](CNC(=O)c1cccs1)C(=O)O` (stereo partly drawn) [Example 37, (S)-2-({5-[1-(3-hydroxy-phenyl)-ethylcarbamoyl]-3-methyl-thiophen-2-carbonyl}-amino)-3-[(thiophene-2-carbonyl)-amino]-propionic acid], the IC50 in test [1] worked out at 0.027 µM.

As to `Cc1cc(C(=O)NCc2cccc(O)c2)sc1C(=O)N[C@@H](CNC(=O)c1cccc2[nH]cnc12)C(=O)O` [Example 46, (S)-3-[(1H-benzoimidazole-4-carbonyl)-amino]-2-{[5-(3-hydroxy-benzylcarbamoyl)-3-methyl-thiophene-2-carbonyl]-amino}-propionic acid], in test [1], the IC50 turned out to be 0.051 µM.

For the compound `Cc1cc(C(=O)NCc2cccc(O)c2)sc1C(=O)N[C@@H](CNC(=O)c1cccc(C(=O)O)c1)C(=O)O` [Example 47, (S)-3-[(benzoic acid-3-carbonyl)-amino]-2-{[5-(3-hydroxy-benzylcarbamoyl)-3-methyl-thiophene-2-carbonyl]-amino}-propionic acid], in test [1], the IC50 is 0.289 µM.

For the compound `Cc1cc(C(=O)NCCc2cccc(O)c2)sc1C(=O)N[C@@H](CNC(=O)c1cccs1)C(=O)O` [Example 48, (S)-2-({5-[2-(3-hydroxy-phenyl)ethyl-carbamoyl]-3-methyl-thiophen-2-carbonyl}-amino)-3-[(thiophene-2-carbonyl)-amino]-propionic acid], the IC50 in test [1] was determined as 0.085 µM.

For `Cc1nc(NC(=O)Cc2cccc(O)c2)sc1C(=O)N[C@@H](CNC(=O)c1cc(F)cc(F)c1)C(=O)O` [Example 1, (S)-3-(3,5-Difluoro-benzoylamino)-2-({2-[2-(3-hydroxy-phenyl)-acetylamino]-4-methyl-thiazole-5-carbonyl}-amino)-propionic acid], the IC50 in test [1] came to 0.017 µM.

Turning to `Cc1cc(C(=O)NCc2cccc(O)c2)sc1C(=O)N[C@@H](CNC(=O)c1cnc(O)cn1)C(=O)O` [Example 45, (S)-2-{[5-(3-hydroxy-benzylcarbamoyl)-3-methyl-thiophene-2-carbonyl]-amino}-3-[(5-hydroxy-pyrazine-2-carbonyl)-amino]-propionic acid], in test [1], the IC50 stood at 0.763 µM.

For `Cc1nc(NC(=O)Cc2cccc(O)c2)sc1C(=O)N[C@@H](CNC(=O)c1ccccc1)C(=O)O` [Example 4, (S)-3-Benzoylamino-2-([2-[2-(3-hydroxy-phenyl)-acetylamino]-4-methyl-thiazole-5-carbonyl]-amino)-propionic acid], the IC50 in test [1] was 0.006 µM.

For `O=C(Cc1cccc2[nH]ncc12)Nc1nc(C(F)(F)F)c(C(=O)N[C@@H](CNC(=O)c2cccs2)C(=O)O)s1` [Example 16, (S)-2-{[2-(2-1H-Indazol-4-yl-acetylamino)-4-trifluoromethyl-thiazole-5-carbonyl]-amino}-3-[(thiophene-2-carbonyl)-amino]-propionic acid], the IC50 in test [1] came to 0.017 µM.

For `N#Cc1cc(C(=O)NCc2cccc(O)c2)sc1C(=O)N[C@@H](CNC(=O)c1cccs1)C(=O)O` [Example 65, (S)-2-{[3-Cyano-5-(3-hydroxy-benzylcarbamoyl)-thiophene-2-carbonyl]-amino}-3-[(thiophene-2-carbonyl)-amino]-propionic acid], the IC50 in test [1] came out at 0.003 µM.

As for `O=C(NC[C@H](NC(=O)c1sc(C(=O)NCc2cccc(O)c2)cc1-c1ccccc1)C(=O)O)c1cccs1` [Example 53, (S)-2-{[5-(3-Hydroxy-benzylcarbamoyl)-3-phenyl-thiophene-2-carbonyl]-amino}-3-[(thiophene-2-carbonyl)-amino]-propionic acid], the IC50 in test [1] is 1.55 µM.
